Experiments:
Experiment in all cases: relative viability (nuclei count vs DMSO), 5 days (fraction); higher = more cells survive
MK-2206 + Vorinostat = compound: NC1(c2ccc(-c3nc4ccn5c(=O)[nH]nc5c4cc3-c3ccccc3)cc2)CCC1 [MK-2206] + O=C(CCCCCCC(=O)Nc1ccccc1)NO [Vorinostat] (partner 1 µM)
Method in brief: (§1)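 Lung cancer cell lines were pin-tool dosed in 1536-well plates on the day after seeding, with either a lone drug or a fixed anchor-drug dose plus five library-drug doses (not always all listed) in √10 steps. Nuclei were counted on 4× images after 5 days. Relative viability is the ratio of treated-well to vehicle-well nuclei counts, with each value a median of duplicate plates.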

Pictilisib + Lapatinib = compound: CS(=O)(=O)N1CCN(Cc2cc3nc(-c4cccc5[nH]ncc45)nc(N4CCOCC4)c3s2)CC1 [Pictilisib] + CS(=O)(=O)CCNCc1ccc(-c2ccc3ncnc(Nc4ccc(OCc5cccc(F)c5)c(Cl)c4)c3c2)o1 [Lapatinib] (partner 2 µM)
Method in brief: as §1

Pictilisib = compound: CS(=O)(=O)N1CCN(Cc2cc3nc(-c4cccc5[nH]ncc45)nc(N4CCOCC4)c3s2)CC1 [Pictilisib]
Method in brief: (§2)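 In 1536-well plates, lung cancer cell lines rested overnight at 37 °C before five library-drug doses (not always all listed), √10 apart, were pinned onto vehicle-anchored plates. Nuclei were counted with MetaXpress from 4× Hoechst images taken after 5 days without medium change. Viability compares treated-well with vehicle-well nuclei as a median over plates, and plates needed control CV below 25% plus at least one doubling to pass.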

MK-2206 = compound: NC1(c2ccc(-c3nc4ccn5c(=O)[nH]nc5c4cc3-c3ccccc3)cc2)CCC1 [MK-2206]
Method in brief: as §2

Cell Line NCI-H650 has a relative viability (MK-2206 + Vorinostat; first compound 0.01 µM) of 0.455, a relative viability (MK-2206 + Vorinostat; first compound 0.03162 µM) of 0.414 and a relative viability (MK-2206 + Vorinostat; first compound 0.3162 µM) of 0.345. The relative viability (MK-2206 + Vorinostat; first compound 1 µM) was 0.428, the relative viability (Pictilisib + Lapatinib; first compound 0.02 µM) was 1.27 and the relative viability (Pictilisib + Lapatinib; first compound 0.06325 µM) was 0.997. For the same cell line, the relative viability (Pictilisib + Lapatinib; first compound 0.6325 µM) was 0.798, the relative viability (Pictilisib + Lapatinib; first compound 2 µM) was 0.689 and the relative viability (Pictilisib; 0.02 µM) was 1.03. It also gave a relative viability (Pictilisib; 0.06325 µM) of 0.958, a relative viability (Pictilisib; 0.6325 µM) of 0.848 and a relative viability (Pictilisib; 1 µM, anchor plate) of 0.865. The relative viability (Pictilisib; 2 µM) was 0.687, the relative viability (MK-2206; 0.01 µM) was 0.986 and the relative viability (MK-2206; 0.03162 µM) was 0.854. For the same cell line, the relative viability (MK-2206; 0.3162 µM) was 0.97 and the relative viability (MK-2206; 1 µM) was 0.764.

IA-LM showed a relative viability (MK-2206 + Vorinostat; first compound 0.01 µM) of 0.935, a relative viability (MK-2206 + Vorinostat; first compound 0.03162 µM) of 1.11 and a relative viability (MK-2206 + Vorinostat; first compound 0.3162 µM) of 1.02. The relative viability (MK-2206 + Vorinostat; first compound 1 µM) was 1.02, the relative viability (Pictilisib + Lapatinib; first compound 0.02 µM) was 0.926 and the relative viability (Pictilisib + Lapatinib; first compound 0.06325 µM) was 0.79. For the same cell line, the relative viability (Pictilisib + Lapatinib; first compound 0.6325 µM) was 0.678, the relative viability (Pictilisib + Lapatinib; first compound 2 µM) was 0.364 and the relative viability (Pictilisib; 0.02 µM) was 0.924. For the same cell line, the relative viability (Pictilisib; 0.06325 µM) was 1.03, the relative viability (Pictilisib; 0.6325 µM) was 0.941 and the relative viability (Pictilisib; 1 µM, anchor plate) was 0.373. The relative viability (Pictilisib; 2 µM) was 0.476, the relative viability (MK-2206; 0.01 µM) was 0.904 and the relative viability (MK-2206; 0.03162 µM) was 0.992. For the same cell line, the relative viability (MK-2206; 0.3162 µM) was 1.02 and the relative viability (MK-2206; 1 µM) was 0.691.

A-427 showed a relative viability (MK-2206 + Vorinostat; first compound 0.01 µM) of 0.871, a relative viability (MK-2206 + Vorinostat; first compound 0.03162 µM) of 0.877 and a relative viability (MK-2206 + Vorinostat; first compound 0.3162 µM) of 0.916. The relative viability (MK-2206 + Vorinostat; first compound 1 µM) was 0.869, the relative viability (Pictilisib + Lapatinib; first compound 0.02 µM) was 0.98 and the relative viability (Pictilisib + Lapatinib; first compound 0.06325 µM) was 1.09. It also gave a relative viability (Pictilisib + Lapatinib; first compound 0.6325 µM) of 1, a relative viability (Pictilisib + Lapatinib; first compound 2 µM) of 0.932 and a relative viability (Pictilisib; 0.02 µM) of 1.1. The relative viability (Pictilisib; 0.06325 µM) was 1.07, the relative viability (Pictilisib; 0.6325 µM) was 0.921 and the relative viability (Pictilisib; 1 µM, anchor plate) was 0.698. The relative viability (Pictilisib; 2 µM) was 0.74, the relative viability (MK-2206; 0.01 µM) was 1.04 and the relative viability (MK-2206; 0.03162 µM) was 1.06. It also gave a relative viability (MK-2206; 0.3162 µM) of 0.981 and a relative viability (MK-2206; 1 µM) of 0.974.

For NCI-H2347, the relative viability (MK-2206 + Vorinostat; first compound 0.01 µM) was 0.641, the relative viability (MK-2206 + Vorinostat; first compound 0.03162 µM) was 0.581 and the relative viability (MK-2206 + Vorinostat; first compound 0.3162 µM) was 0.645. The relative viability (MK-2206 + Vorinostat; first compound 1 µM) was 0.555, the relative viability (Pictilisib + Lapatinib; first compound 0.02 µM) was 0.86 and the relative viability (Pictilisib + Lapatinib; first compound 0.06325 µM) was 0.973. It also gave a relative viability (Pictilisib + Lapatinib; first compound 0.6325 µM) of 0.992, a relative viability (Pictilisib + Lapatinib; first compound 2 µM) of 0.729 and a relative viability (Pictilisib; 0.02 µM) of 1.02. It also gave a relative viability (Pictilisib; 0.06325 µM) of 1.05, a relative viability (Pictilisib; 0.6325 µM) of 0.934 and a relative viability (Pictilisib; 1 µM, anchor plate) of 0.644. It also gave a relative viability (Pictilisib; 2 µM) of 0.708, a relative viability (MK-2206; 0.01 µM) of 0.952 and a relative viability (MK-2206; 0.03162 µM) of 0.997. It also gave a relative viability (MK-2206; 0.3162 µM) of 0.997 and a relative viability (MK-2206; 1 µM) of 0.945.

NCI-H1793 was tested, and the relative viability (MK-2206 + Vorinostat; first compound 0.01 µM) was 0.818, the relative viability (MK-2206 + Vorinostat; first compound 0.03162 µM) was 0.773 and the relative viability (MK-2206 + Vorinostat; first compound 0.3162 µM) was 0.636. The relative viability (MK-2206 + Vorinostat; first compound 1 µM) was 0.478, the relative viability (Pictilisib + Lapatinib; first compound 0.02 µM) was 0.693 and the relative viability (Pictilisib + Lapatinib; first compound 0.06325 µM) was 0.963. The relative viability (Pictilisib + Lapatinib; first compound 0.6325 µM) was 0.61, the relative viability (Pictilisib + Lapatinib; first compound 2 µM) was 0.336 and the relative viability (Pictilisib; 0.02 µM) was 0.864. For the same cell line, the relative viability (Pictilisib; 0.06325 µM) was 0.956, the relative viability (Pictilisib; 0.6325 µM) was 0.539 and the relative viability (Pictilisib; 1 µM, anchor plate) was 0.343. For the same cell line, the relative viability (Pictilisib; 2 µM) was 0.359, the relative viability (MK-2206; 0.01 µM) was 0.979 and the relative viability (MK-2206; 0.03162 µM) was 1.04. It also gave a relative viability (MK-2206; 0.3162 µM) of 0.887 and a relative viability (MK-2206; 1 µM) of 0.743.

NCI-H1651 was tested, and the relative viability (MK-2206 + Vorinostat; first compound 0.01 µM) was 0.568, the relative viability (MK-2206 + Vorinostat; first compound 0.03162 µM) was 0.583 and the relative viability (MK-2206 + Vorinostat; first compound 0.3162 µM) was 0.597. For the same cell line, the relative viability (MK-2206 + Vorinostat; first compound 1 µM) was 0.461, the relative viability (Pictilisib + Lapatinib; first compound 0.02 µM) was 0.919 and the relative viability (Pictilisib + Lapatinib; first compound 0.06325 µM) was 0.721. The relative viability (Pictilisib + Lapatinib; first compound 0.6325 µM) was 0.568, the relative viability (Pictilisib + Lapatinib; first compound 2 µM) was 0.424 and the relative viability (Pictilisib; 0.02 µM) was 0.961. It also gave a relative viability (Pictilisib; 0.06325 µM) of 0.997, a relative viability (Pictilisib; 0.6325 µM) of 0.918 and a relative viability (Pictilisib; 1 µM, anchor plate) of 0.639. It also gave a relative viability (Pictilisib; 2 µM) of 0.631, a relative viability (MK-2206; 0.01 µM) of 0.949 and a relative viability (MK-2206; 0.03162 µM) of 0.968. For the same cell line, the relative viability (MK-2206; 0.3162 µM) was 1.03 and the relative viability (MK-2206; 1 µM) was 0.937.

For HCC-78, the relative viability (MK-2206 + Vorinostat; first compound 0.01 µM) was 0.439, the relative viability (MK-2206 + Vorinostat; first compound 0.03162 µM) was 0.504 and the relative viability (MK-2206 + Vorinostat; first compound 0.3162 µM) was 0.408. It also gave a relative viability (MK-2206 + Vorinostat; first compound 1 µM) of 0.398, a relative viability (Pictilisib + Lapatinib; first compound 0.02 µM) of 0.685 and a relative viability (Pictilisib + Lapatinib; first compound 0.06325 µM) of 0.749. The relative viability (Pictilisib + Lapatinib; first compound 0.6325 µM) was 0.594, the relative viability (Pictilisib + Lapatinib; first compound 2 µM) was 0.181 and the relative viability (Pictilisib; 0.02 µM) was 0.867. The relative viability (Pictilisib; 0.06325 µM) was 0.854, the relative viability (Pictilisib; 0.6325 µM) was 0.586 and the relative viability (Pictilisib; 1 µM, anchor plate) was 0.219. For the same cell line, the relative viability (Pictilisib; 2 µM) was 0.376, the relative viability (MK-2206; 0.01 µM) was 0.945 and the relative viability (MK-2206; 0.03162 µM) was 0.919. It also gave a relative viability (MK-2206; 0.3162 µM) of 1.02 and a relative viability (MK-2206; 1 µM) of 0.638.

With NCI-H23 the relative viability (MK-2206 + Vorinostat; first compound 0.01 µM) was 0.6, the relative viability (MK-2206 + Vorinostat; first compound 0.03162 µM) was 0.508 and the relative viability (MK-2206 + Vorinostat; first compound 0.3162 µM) was 0.569. The relative viability (MK-2206 + Vorinostat; first compound 1 µM) was 0.372, the relative viability (Pictilisib + Lapatinib; first compound 0.02 µM) was 1.17 and the relative viability (Pictilisib + Lapatinib; first compound 0.06325 µM) was 1.45. For the same cell line, the relative viability (Pictilisib + Lapatinib; first compound 0.6325 µM) was 0.952, the relative viability (Pictilisib + Lapatinib; first compound 2 µM) was 0.496 and the relative viability (Pictilisib; 0.02 µM) was 1.01. For the same cell line, the relative viability (Pictilisib; 0.06325 µM) was 1.09, the relative viability (Pictilisib; 0.6325 µM) was 0.808 and the relative viability (Pictilisib; 1 µM, anchor plate) was 0.525. The relative viability (Pictilisib; 2 µM) was 0.478, the relative viability (MK-2206; 0.01 µM) was 0.944 and the relative viability (MK-2206; 0.03162 µM) was 0.909. For the same cell line, the relative viability (MK-2206; 0.3162 µM) was 0.896 and the relative viability (MK-2206; 1 µM) was 0.783.

LOU-NH91 showed a relative viability (MK-2206 + Vorinostat; first compound 0.01 µM) of 0.938, a relative viability (MK-2206 + Vorinostat; first compound 0.03162 µM) of 0.933 and a relative viability (MK-2206 + Vorinostat; first compound 0.3162 µM) of 0.887. For the same cell line, the relative viability (MK-2206 + Vorinostat; first compound 1 µM) was 0.826, the relative viability (Pictilisib + Lapatinib; first compound 0.02 µM) was 0.787 and the relative viability (Pictilisib + Lapatinib; first compound 0.06325 µM) was 0.733. It also gave a relative viability (Pictilisib + Lapatinib; first compound 0.6325 µM) of 0.621, a relative viability (Pictilisib + Lapatinib; first compound 2 µM) of 0.525 and a relative viability (Pictilisib; 0.02 µM) of 1.02. For the same cell line, the relative viability (Pictilisib; 0.06325 µM) was 0.987, the relative viability (Pictilisib; 0.6325 µM) was 0.874 and the relative viability (Pictilisib; 1 µM, anchor plate) was 0.538. It also gave a relative viability (Pictilisib; 2 µM) of 0.681, a relative viability (MK-2206; 0.01 µM) of 0.983 and a relative viability (MK-2206; 0.03162 µM) of 0.999. It also gave a relative viability (MK-2206; 0.3162 µM) of 1.02 and a relative viability (MK-2206; 1 µM) of 0.875.
